{"source": "patent EP0415126B1", "about": "“Anti-dental plaque agents” (MITSUI NORIN CO., LTD., priority 1989, dated 1991)", "test_system": "glucosyltransferase", "experiment": "Inhibition of water-insoluble glucan formation by crude glucosyltransferase (14C-sucrose, scintillation counting)", "format": "biochemical, Streptococcus mutans OMZ 176", "conditions": "Water-insoluble glucan formation vs control, 60 minutes at 37°C, pH 6.8", "method": "Crude glucosyltransferase was refined from Streptococcus mutans OMZ 176 according to the method described by Mukasa and Slads in Infect. Immun., 8, 555 (1973) and 9, 419 (1974).\nThe above GTF, labeled sucrose and the tea polyphenol compounds were mixed together to the following final concentrations, and was regulated with a 50 mM phosphate buffer (with pH 6.8). GTF: 0.34 mg protein/ml 0.1 mM (¹⁴C) sucrose: 0.1 »Ci/»l Present agent: 1 to 10 mg/ml or 1 to 10 mM.\nTwenty (20) »l of the mixture solution were subjected to a reaction for 60 minutes at 37°C. After the completion of the reaction, 5 »l of the reaction mixture and 5 »l of supernatant obtained by centrifugation of the reaction mixture at 5,500 x g for 3 minutes were applied to a filter paper respectively, and then developed with a developing solution of butanol-pyridine-water (6:4:3), followed by counting with a scintillation counter. The amount of water-insoluble glucan was found by a difference between the measurements of the reaction mixture and the supernatant. The GTF inhibiting ability is expressed in terms of the rate of inhibiting the formation of water-insoluble glucan with respect to a control to which the tea polyphenol compounds were not added.", "data": [{"compound": "Oc1cc(O)c2c(c1)O[C@H](c1ccc(O)c(O)c1)[C@@H](O)C2", "note": "[(+)-Catechin]", "values": [{"measurement": "Inhibition (%)", "setting": "sample concentration 1.0 mM", "result": 22, "unit": "%"}, {"measurement": "Inhibition (%)", "setting": "sample concentration 10.0 mM", "result": 62, "unit": "%"}]}, {"compound": "Oc1cc(O)c2c(c1)O[C@@H](c1ccc(O)c(O)c1)[C@@H](O)C2", "note": "[(+)-Epicatechin]", "values": [{"measurement": "Inhibition (%)", "setting": "sample concentration 1.0 mM", "result": 12, "unit": "%"}, {"measurement": "Inhibition (%)", "setting": "sample concentration 10.0 mM", "result": 42, "unit": "%"}]}, {"compound": "Oc1cc(O)c2c(c1)O[C@H](c1cc(O)c(O)c(O)c1)[C@@H](O)C2", "note": "[(+)-Gallocatechin]", "values": [{"measurement": "Inhibition (%)", "setting": "sample concentration 1.0 mM", "result": 15, "unit": "%"}, {"measurement": "Inhibition (%)", "setting": "sample concentration 10.0 mM", "result": 51, "unit": "%"}]}, {"compound": "O=C(O[C@@H]1Cc2c(O)cc(O)cc2O[C@H]1c1cc(O)c(O)c(O)c1)c1cc(O)c(O)c(O)c1", "note": "[(-)-Gallocatechin gallate]", "values": [{"measurement": "Inhibition (%)", "setting": "sample concentration 1.0 mM", "result": 47, "unit": "%"}, {"measurement": "Inhibition (%)", "setting": "sample concentration 10.0 mM", "result": 95, "unit": "%"}]}, {"compound": "O=c1c(O)cc([C@H]2Oc3cc(O)cc(O)c3C[C@H]2O)cc2c([C@H]3Oc4cc(O)cc(O)c4C[C@H]3O)cc(O)c(O)c12", "note": "[Free theaflavin]", "values": [{"measurement": "Inhibition (%)", "setting": "sample concentration 1.0 mM", "result": 57, "unit": "%"}, {"measurement": "Inhibition (%)", "setting": "sample concentration 10.0 mM", "result": 98, "unit": "%"}]}, {"compound": "O=C(O[C@@H]1Cc2c(O)cc(O)cc2O[C@@H]1c1cc(O)c(=O)c2c(O)c(O)cc([C@H]3Oc4cc(O)cc(O)c4C[C@H]3OC(=O)c3cc(O)c(O)c(O)c3)c2c1)c1cc(O)c(O)c(O)c1", "note": "[Theaflavin digallate]", "values": [{"measurement": "Inhibition (%)", "setting": "sample concentration 1.0 mM", "result": 56, "unit": "%"}, {"measurement": "Inhibition (%)", "setting": "sample concentration 10.0 mM", "result": 98, "unit": "%"}]}, {"compound": "O=C(O[C@@H]1Cc2c(O)cc(O)cc2O[C@@H]1c1cc(=O)c(O)c2c(O)c(O)cc([C@H]3Oc4cc(O)cc(O)c4C[C@H]3O)c2c1)c1cc(O)c(O)c(O)c1", "note": "[Theaflavin monogallate A]", "values": [{"measurement": "Inhibition (%)", "setting": "sample concentration 1.0 mM", "result": 64, "unit": "%"}, {"measurement": "Inhibition (%)", "setting": "sample concentration 10.0 mM", "result": 97, "unit": "%"}]}, {"compound": "O=C(O[C@@H]1Cc2c(O)cc(O)cc2O[C@@H]1c1cc(O)c(O)c2c(=O)c(O)cc([C@H]3Oc4cc(O)cc(O)c4C[C@H]3O)cc12)c1cc(O)c(O)c(O)c1", "note": "[Theaflavin monogallate B]", "values": [{"measurement": "Inhibition (%)", "setting": "sample concentration 1.0 mM", "result": 47, "unit": "%"}, {"measurement": "Inhibition (%)", "setting": "sample concentration 10.0 mM", "result": 98, "unit": "%"}]}, {"compound": "(-)-Catechin", "values": [{"measurement": "Inhibition (%)", "setting": "sample concentration 1.0 mM", "result": 15, "unit": "%"}, {"measurement": "Inhibition (%)", "setting": "sample concentration 10.0 mM", "result": 45, "unit": "%"}]}, {"compound": "(-)-Epicatechin", "values": [{"measurement": "Inhibition (%)", "setting": "sample concentration 1.0 mM", "result": 5, "unit": "%"}, {"measurement": "Inhibition (%)", "setting": "sample concentration 10.0 mM", "result": 42, "unit": "%"}]}, {"compound": "(-)-Epicatechin gallate", "values": [{"measurement": "Inhibition (%)", "setting": "sample concentration 1.0 mM", "result": 35, "unit": "%"}, {"measurement": "Inhibition (%)", "setting": "sample concentration 10.0 mM", "result": 83, "unit": "%"}]}, {"compound": "(-)-Gallocatechin", "values": [{"measurement": "Inhibition (%)", "setting": "sample concentration 1.0 mM", "result": 20, "unit": "%"}, {"measurement": "Inhibition (%)", "setting": "sample concentration 10.0 mM", "result": 30, "unit": "%"}]}]}
